Test results reported in patent US12329852B2, “Sustained-release 9-cis retinoic acid implantable drug delivery pellets for the prevention of postsurgical edema and lymphedema” (UNIVERSITY OF SOUTHERN CALIFORNIA, priority 2019, dated 2025).
“Also recorded” adds a separate entry of the source. Read-outs that look alike come from different tables or passages of the source.

Experiments:
tail lymphedema [1] = test: Dermal and epidermal thickness, H&E stained tails; type: in vivo, BALB/c mice; details: 0.08 mg/kg daily i.p.; for mean epidermal tail thickness / dermal thickness: mean±standard error
Experimental: (§1) Tail specimens were collected on post-operative day 47. Specimens were harvested to include 1 cm proximal and 1 cm distal the wound, then divided to separate proximal and distal portions. Tails were inked to enable proper orientation, fixed in 10% neutral buffered formalin overnight, decalcified in 10% EDTA (pH: 7.3) for 6 days at 4° C., embedded in paraffin, sectioned at 3-5 μm, then stained with hematoxylin and eosin (H&E) or via immunohistochemical techniques. In summary, sections were deparaffinized, underwent antigen retrieval with sodium citrate buffer, incubated overnight with the primary antibody (1:200) at 4° C., washed, incubated with a suitable secondary antibody (1:200), then stained with immPACT DAB Substrate (Vector Laboratories, Inc, Burlingame, CA) and counterstained with Delafield Hematoxylin (Sigma-Aldrich, USA) diluted 1:4. Podoplanin (clone 8.1.1; sc-53533, Santa Cruz Biotechnology, Inc., Dallas, TX) was used to immunohistochemically mark lymphatics in paraffin embedded tail sections.
(§2) Slides were counterstained with hematoxylin and mounted. All images were obtained with a Keyence BZ-X700 microscope (Itasca, IL) and epidermal and dermal thickness was measured using ImageJ (National Institutes of Health, Betheseda, MD). The thickest part of the epidermis and dermis was measured in 5 high-power fields per section, as previously described. On the immunohistochemically stained slides, podoplanin stained vessels in the dermis and subcutis were quantified in ImageJ. Two high-power fields per section were randomly selected and then analyzed by a blinded reviewer. The reviewer scored the number of podoplanin stained vessels and the area (mm^2) of the dermis and subcutaneous tissue in each image. Lymphatic vessel density was calculated from the absolute lymphatic number normalized to the dermal and subcutaneous area measured (number of lymphatics/mm^2).^2 For the immunofluorescent stained slides, LYVE-1 stained vessels were quantified with ImageJ, to assess included lymphatic density, lymphatic vessel width, inter-lymphatic vessel distance, branching points, loops and blind-ended sacs.

tail lymphedema [2] = test: Lymphatic vessel density, podoplanin immunohistochemistry of tail; type: in vivo, BALB/c mice; details: 0.08 mg/kg daily i.p.
Experimental: as §1
as §2, with “Lymphatic vessel density was calculated from the absolute lymphatic number normalized to the dermal and subcutaneous area measured (number of lymphatics/mm^2).^2 For the immunofluorescent stained slides, LYVE-1 stained vessels were quantified with ImageJ, to assess included lymphatic density, lymphatic vessel width, inter-lymphatic vessel distance, branching points, loops and blind-ended sacs.” left out

[3] = mouse, in vivo, po
Experimental: Oral administration experiments were performed on 30 adult BALB/c mice, 12 to 14 weeks old, and weighing between 21 and 30 g. Surgical excision of lymphatic vessels at 20-mm from the base of the tail was performed in order to induce secondary lymphedema. Mice receive 9-cis RA dissolved in sunflower oil via oral gavage for 6 weeks in accordance to the dosing regimes in Table 3.

tail lymphedema [4] = test: Mouse tail secondary lymphedema model, tail volume (intraperitoneal injection); type: in vivo, BALB/c mice
Experimental: All experiments were performed in accordance with the The Guide for the Care and Use of Laboratory Animals (National Research Council, 8th ed, 2011) and the Animal Welfare Act. Our protocol was approved by the University of Southern California Institutional Animal Care and Use Committee. Fifty adult BALB/c mice, 12 to 14 weeks old, weighing between 21 and 30 g were purchased from Jackson Laboratories (Jackson, Bar Harbor, ME). Animals were maintained in a temperature and light-controlled environment with ad libitum access to a normal chow diet and water.
A previously well described tail model to induce lymphedema was modified in the present experiments. Mice were anesthetized using 2.5% isofluorane, and a 5-mm wide circumferential skin excision was made 20-mm from the base of the tail. Underlying lymphatic vessels were visualized using isosulfan blue and ligated under a dissecting surgical microscope. Daily bacitracin antibiotic ointment was applied to the surgical site to prevent wound infection and desiccation.
Animals were randomly assigned to one of five groups following surgery: control, 7 days, 14 days, 45 days, and delay. Mice received daily intraperitoneal injections of either 100 μL vehicle solution (90 μL sunflower seed oil/10 μL 100% ethanol) or 0.08 mg/kg 9-cis RA dissolved in 100 μL of vehicle solution [5]. The treatment administered to each group was: (1) control: vehicle for 45 days following surgery, (2) 7 day: 9-cis RA for 7 days, (3) 14 day: 9-cis RA for 14 days, (4) 45 day: 9-cis RA for 45 days, and (5) delay: 9-cis RA for 7 days beginning one week after surgery. Animals with necrotic tails or that developed surgical site infections were sacrificed and excluded from analysis.
Animals were photographed every five days for a 6-week duration, and tail diameter was measured using ImageJ (National Institutes of Health, Bethesda, MD). Measurements were taken at 5-mm intervals from the distal-most edge of the wound for a total of seven measurements per animal for every time point. Total distal tail volume was calculated using the truncated cone formula [8]. Percent change in distal tail volume was recorded, analyzed, and plotted using GraphPad Prism 7 (GraphPad Software, Inc.).

diaphragmatic lymphatics = test: India ink staining of the diaphragm; type: in vivo, BALB/c mice; details: 0.08 mg/kg daily i.p.
Experimental: On post-operative day 47, each animal was intraperitoneally injected with 5 cc of India Ink which was diluted 2-folds with distilled water. Ten minutes after the injection of India ink, the animal was euthanized and the diaphragms were harvested in their entirety. The specimens were then rinsed with running tap water for 1 minute and mounted on the stage of a dissecting microscope equipped with a digital camera. The whole-mount specimen, exclusive of the central tendon, was then analyzed for the passive lymphatic absorption of India ink utilizing the percent stained area on ImageJ.

CC1=C(/C=C/C(C)=C\C=C\C(C)=C\C(=O)O)C(C)(C)CCC1 [9-cis RA, 9-cis retinoic acid]
dermal thickening compared to control (tail lymphedema [1]; 7-day group): no significant effect on tail lymphedema or dermal thickening
mean epidermal tail thickness (tail lymphedema [1]; 7-day group): 109.2±10.21 μm
dermal thickness (tail lymphedema [1]; 14-day group): 352.4±21.29 μm
mean epidermal tail thickness (tail lymphedema [1]; 14-day group): 52.07±2.616 μm
dermal thickness (tail lymphedema [1]; 45-day group): 525.2±25.09 μm
mean epidermal tail thickness (tail lymphedema [1]; 45-day group): 83.14±8.099 μm
dermal thickness (tail lymphedema [1]; delay group): 502±30.17 μm
mean epidermal tail thickness (tail lymphedema [1]; delay group): 73.51±10.94 μm
lymphatic vessel density compared to control (tail lymphedema [2]; 7-day delay group): strong trend towards improvement but not statistical significance
lymphatic vessel density compared to control (tail lymphedema [2]; 14-day group): trend towards increased lymphatic density that did not reach statistical significance; also recorded: trending towards significance
lymphatic vessel density compared to control (tail lymphedema [2]; 42-day/45-day group, tails distal to wound, day 47): significantly increased compared to the controls; also recorded: statistically significant difference
systemic toxicity by liver and kidney function tests (AST, ALT, BUN) ([3]; 10 mg/kg): minimal systemic toxicity
systemic toxicity by liver and kidney function tests (AST, ALT, BUN) ([3]; 30 mg/kg): minimal systemic toxicity
tail volume compared to control (tail lymphedema [4]; 0.08 mg/kg daily i.p. for 7 days): approached tail volumes similar to the lymphedematous control group past the 4-week time point; also recorded: no significant effect on tail lymphedema or dermal thickening
tail volume compared to control (tail lymphedema [4]; 0.08 mg/kg daily i.p. for 7 days beginning one week after surgery (delay group)): statistically significant decrease in tail volumes from day-14 onwards; also recorded: decreased tail volume
tail volume compared to control (tail lymphedema [4]; 0.08 mg/kg daily i.p. for 14 days): approached tail volumes similar to the lymphedematous control group past the 4-week time point; also recorded: no significant difference in tail volume
tail volume compared to control (tail lymphedema [4]; 0.08 mg/kg daily i.p., continuous (45-day/42-day group)): significantly smaller than the lymphedematous controls
percent stained area of diaphragms (India ink) vs vehicle control (diaphragmatic lymphatics; 14-day group): marginal significance
percent stained area of diaphragms (India ink) vs vehicle control (diaphragmatic lymphatics; groups other than 14-day): essentially no differences
